Consider 39 compounds from the Deep4Chem optical property database.

This data set is described as follows: photoluminescence quantum yield (fraction); solvent given as SMILES.

Structures are written as SMILES.

Turning to `CC[n+]1c(C=C2C(=O)C(C=C3N(C)c4ccccc4C3(C)C)=C2[O-])sc2ccccc21`, the photoluminescence quantum yield (in CC(C)O) worked out at 0.1.

`CCOC(=O)c1ccc2c(c1)sc1c3ccc(C(=O)OCC)cc3sc21` registered a photoluminescence quantum yield (in CCCO) of 0.083.

For the compound `CC(C)(C)NC(=O)c1ccc(-c2ccc(N3c4ccccc4Oc4ccccc43)cc2)c2ccc3c4ccc(F)cc4c4cc(F)ccc4c3c12`, the photoluminescence quantum yield (in ClCCl) was determined as 0.03.

As for `Cc1cc(C)c(B(c2c(C)cc(C)cc2C)N2c3ccccc3C(c3ccccc3)(c3ccccc3)c3ccccc32)c(C)c1`, the photoluminescence quantum yield by setting is: (in C1CCCCC1) 0.732; (in Cc1ccccc1) 0.974; (in ClCCl) 0.891.

Take `COc1ccc(-c2cc3c(s2)c(-c2ccccc2)cc(=O)n3C)cc1`: the photoluminescence quantum yield reads like this: (in CC#N) 0.42; (in ClCCl) 0.46.

In the case of `O=c1c2cc(F)c(O)cc2oc2cc(N3CCCCC3)c(F)cc12`, the photoluminescence quantum yield (in CCO) turned out to be 0.23.

Turning to `CN1C(=CC2=C([O-])C(=CC3=[N+](C)c4ccc(Cl)cc4C3(C)C)C2=O)C(C)(C)c2cc(Cl)ccc21`, the photoluminescence quantum yield (in CC(C)O) was 0.1.

Consider `CCCCN(CCCC)c1ccc(C#Cc2cc(C#Cc3ccc(C(F)(F)F)cc3)c(C#Cc3ccc(C(F)(F)F)cc3)cc2C#Cc2ccc(N(CCCC)CCCC)cc2)cc1`, for which the photoluminescence quantum yield (in ClCCl) is 0.44.

The compound `CCCc1c(C(=O)c2ccc3c4c(cccc24)-c2cccc4c2C3CC=C4)c2ccc3cccc4c5cccc6ccc1c(c65)c2c34` (centres undefined) came in with a photoluminescence quantum yield (in ClCCl) of 0.058.

`N#Cc1ccc(/C=C/C(F)(F)F)c(N)c1` showed a photoluminescence quantum yield (in C1CCOC1) of 0.82.

For `Cn1c2ccccc2c2c1c1ccccc1n2C`, the photoluminescence quantum yield (in CCCO) was 0.81.

Consider `c1ccc(Nc2nc(Nc3ccccc3)nc(Nc3ccc4cc5ccccc5cc4c3)n2)cc1`, for which the photoluminescence quantum yield by setting is: (in C1COCCO1) 0.62; (in CC#N) 0.43; (in CCCCOCCCC) 0.41; (in CCOC(C)=O) 0.3.

`c1ccc(-c2cc(-c3ccccc3)cc(-c3ccc4c(c3)C3(c5cc(-c6cc(-c7ccccc7)cc(-c7ccccc7)c6)ccc5-4)c4ccccc4-c4c3c3c5ccccc5ccc3c3ccccc43)c2)cc1` came in with a photoluminescence quantum yield (in Cc1ccccc1) of 0.59.

In the case of `S=c1[nH]nc(-c2ccc(/C=C/c3ccc(-c4n[nH]c(=S)o4)cc3)cc2)o1`, where the note is “in CN(C)C=O”, the photoluminescence quantum yield is 0.33.

Consider `Cc1cc(C)c(B(c2c(C)cc(C)cc2C)N2c3ccccc3C(C)(C)c3ccccc32)c(C)c1`, for which the photoluminescence quantum yield runs as follows: (in C1CCCCC1) 0.931; (in Cc1ccccc1) 0.802; (in ClCCl) 0.9.

In the case of `CC(C)(C)c1ccc(C2=C(c3ccc(C(C)(C)C)cc3)C(c3ccc(C(C)(C)C)cc3)=[N+]3C2=C(c2ccccc2)c2c(-c4ccc(C(C)(C)C)cc4)c(-c4ccc(C(C)(C)C)cc4)c(-c4ccc(C(C)(C)C)cc4)n2[B-]3(F)F)cc1`, the photoluminescence quantum yield is, setting by setting: (in C1CCCCC1) 0.32; (in C1CCOC1) 0.3; (in CC#N) 0.25; (in Cc1ccccc1) 0.57; (in ClCCl) 0.45.

As to `COC1=[N+]2C(=C(c3ccccc3)c3ccc(OC)n3[B-]2(F)F)C=C1`, the photoluminescence quantum yield was determined as 0.11 (in CC#N); 0.12 (in CCCCCC); 0.11 (in CCOC(C)=O); 0.14 (in CO); 0.2 (in ClCCl).

Turning to `CC1(C)CC(=O)C2=C(C1)Oc1ccc3ccc(O)cc3c1C2c1ccccn1` (centres undefined), the photoluminescence quantum yield was found to be 0.0027 (in C1CCOC1); 0.0021 (in C1COCCO1); 0.0037 (in CC#N); 0.0082 (in CCCCCCC); 0.0035 (in CCO); 0.0024 (in CO). In addition, the photoluminescence quantum yield (in O) was found to be 0.2.

As for `c1ccc2c(c1)Cc1ccccc1N2c1c2ccccc2cc2ccccc12`, under “in Cc1ccccc1”, the photoluminescence quantum yield was 0.06.

`CC1=CC(C)=[N+]2C1=C(c1ccc(I)cc1)c1c(C)cc(C)n1[B-]2(F)F` came in with a photoluminescence quantum yield (in ClC(Cl)Cl) of 0.57.

Turning to `[NH3+]C(Cc1ccccc1)C(=O)[O-]` (centres undefined), the photoluminescence quantum yield (in O) stood at 0.022.

Consider `CC1=N/C(=C\c2cccc(N(C)C)c2)C(=O)N1CCO`, for which the photoluminescence quantum yield is, setting by setting: (in C1CCOC1) 0.12; (in CC#N) 0.02; (in CCCCCC) 0.43.

As to `COc1ccc(N2c3sc4ccccc4c3Sc3c2sc2ccccc32)cc1`, under “in ClCCl”, the photoluminescence quantum yield stood at 0.23.

As for `CCCC1(CCC)c2cc(C#N)ccc2-c2ccc(C#N)cc21`, the photoluminescence quantum yield (in C1CCCCC1) stood at 0.32.

In the case of `FC(F)(F)c1ccc(/C=C/c2nc3c(ccc4ccccc43)s2)cc1`, the photoluminescence quantum yield runs as follows: (in C1CCCCC1) 0.14; (in CC#N) 0.14.

For `C/C=C/C=C/C1=NC(=C\c2ccc([O-])cc2)/C(=O)N1C`, for the setting “in O”, the photoluminescence quantum yield was 0.0008.

Take `COc1ccc2c(c1)C(=O)c1ccccc1-2`: the photoluminescence quantum yield (in C1CCCCC1) stood at 0.034, the photoluminescence quantum yield (in CC#N) was found to be 0.0018 and the photoluminescence quantum yield (in CCO) worked out at 0.

For the setting “in C1CCOC1”, `COc1ccc(-c2cc3c(cc2OC)-c2c(c4c(c5c2-c2cc(OC)c(-c6ccc(OC)cc6)cc2C5)C(=O)N(CCC(C)C)C4=O)C3)cc1` came in with a photoluminescence quantum yield of 0.59.

In turn, `Cc1ccc(-c2ccc(-c3ccc(C)cc3)c(/C(=C(/c3ccccc3)c3cc(-c4ccc(C)cc4)ccc3-c3ccc(C)cc3)c3ccccc3)c2)cc1` had a photoluminescence quantum yield (in C1CCOC1) of 0.32.

Take `C=CCOc1ccc(-c2nc3cc(C(NC(=O)OC(C)(C)C)C(=O)OC)ccc3o2)cc1` (centres undefined): the photoluminescence quantum yield by setting is: (in CC1CCCCC1) 0.84; (in CC#N) 0.56; (in CO) 0.79.

`CCOC(=O)c1cc(C(=O)OCC)c2cc(NC)ccc2n1`: the photoluminescence quantum yield (in CCO) was 0.47.

In turn, `O=S(=O)(c1ccccc1)c1ccc(-n2c3ccccc3c3c2c2ccccc2n3-c2ccccc2)cc1` registered a photoluminescence quantum yield (in Cc1ccccc1) of 0.195.

For `CC(=O)Nc1ccc2ccc3cccc4ccc1c2c34`, the photoluminescence quantum yield by setting is: (in CC#N) 0.23; (in CCCCOCCCC) 0.27; (in CO) 0.13.

With `CCCCCCCCOc1ccc(C2=C3C(C)=C(C#Cc4ccc(B(c5c(C)cc(C)cc5C)c5c(C)cc(C)cc5C)cc4)C(C)=[N+]3[B-](F)(F)n3c(C)c(C#Cc4ccc(B(c5c(C)cc(C)cc5C)c5c(C)cc(C)cc5C)cc4)c(C)c32)cc1`, where the note is “in ClCCl”, the photoluminescence quantum yield turned out to be 0.65.

For `CCC1=C(C)C(=O)n2c1cc1c(CCC(=O)OC)c(C)c(C)n1c2=O`, the photoluminescence quantum yield runs as follows: (in CO) 0.82; (in CS(C)=O) 1; (in ClC(Cl)Cl) 0.95; (in c1ccccc1) 1.

On to `CN(C)c1ccc(/C=C/C(=O)O)cc1`, for which the photoluminescence quantum yield reads like this: (in C1CCOC1) 0.0134; (in CC#N) 0.0205; (in CCCCO) 0.0071; (in O) 0.002; (in c1ccccc1) 0.0112.

Turning to `CN1/C(=C/C=C(/C=C/c2sc3ccccc3[n+]2C)c2ccccc2)Sc2ccccc21`, the photoluminescence quantum yield (in CCO) came to 0.06, the photoluminescence quantum yield (in CO) was determined as 0.07 and the photoluminescence quantum yield (in CS(C)=O) turned out to be 0.24.

For the setting “in ClCCl”, `COc1ccc(C2=Nc3cccc4[n+]3[B-](F)(O2)OC(c2ccc(OC)cc2)=N4)cc1` had a photoluminescence quantum yield of 0.39.

In turn, `O=Cc1ccc(/C=C/c2nc(N3CCOCC3)c3c([n+]2[O-])CCCC3)cc1` came in with a photoluminescence quantum yield (in ClCCl) of 0.025.
